Data taken from patent US20220370464A1, “COMPOSITIONS AND METHODS OF TREATING OR PREVENTING OCULAR INFECTIONS WITH FILOCICLOVIR” (Microbiotix, Inc., priority 2019, published 2022).
Like-named read-outs stand apart in the source and are kept apart here.

What was measured:
Adenovirus 5 (AdV5) = test: Cytopathic effects (CPE) reduction assay, AdV5 in HFF cells, 384-well; format: cell-based, human adenovirus 5 (AdV5); conditions: for EC50: AdV 384 Well CPE, HFF cells, average and SD from five independent experiments
Protocol: Cell monolayers were infected at a multiplicity of infection (MOI) of approximately 0.005 PFU/cell with virus strains including AdV5. […] Cytopathology was determined by the addition of CellTiter-Glo® reagent (Promega, Madison, Wis.). Concentrations of antiviral test compounds sufficient to reduce CPE by 50% (EC50) were interpolated from the experimental data using standard methods in Microsoft® Excel.

[1] = test system: human foreskin fibroblast (HFF) cells; test: Cytotoxicity, CellTiter-Glo cell viability in HFF cells
Protocol: (§1) Human foreskin tissue was obtained from the University of Alabama at Birmingham tissue procurement facility with approval from the Institutional Review Board. The tissue was stored at 4° C. in cell culture medium consisting of minimum essential media (MEM) with Earle's salts supplemented with 10% fetal bovine serum (FBS; HyClone, Inc., Logan, Utah) and standard concentration of L-glutamine, amphotericin B (Fungizone), and vancomycin. The tissue was then placed in a phosphate-buffered saline solution, minced, and rinsed to remove the red blood cells. Tissue fragments were then resuspended in a trypsin-EDTA solution and incubated at 37° C. to disperse the cells, which were then collected by centrifugation. Cell pellets were then resuspended in 4 ml culture medium, placed in a 25-cm^2 tissue culture flask, and incubated at 37° C. for 24 h. The culture medium was then replaced with fresh medium and condition of the cells was monitored daily until a confluent cell monolayer was formed. The HFF cells were then expanded through serial passages in standard growth medium of MEM with Earle's salts supplemented with 10% FBS, L-glutamine, penicillin, and gentamicin. Each lot of cells was confirmed to be free of mycoplasma infection and routinely passaged or used for assays at or before passage 10.
(§2) Antiviral and cytotoxicity data were obtained in a series of three to five separate experiments for each virus to provide an accurate estimate of antiviral activity and statistical data. Each assay included positive and negative control compounds as well as infected and uninfected controls to ensure the integrity of the experiment.
(§3) The CPE reduction assays were performed in monolayers of human foreskin fibroblast (HFF) cells (5000/well) in 384-well plates in assay media consisting of MEM with Earle's salts, 2% FBS and standard concentrations of L-glutamine, penicillin and gentamycin. 5000 cells were seeded in 384-well microtiter plates and incubated at 37° C. in a humidified 5% CO2 incubator for 24 hours to allow for formation of confluent monolayers.
(§4) Cell monolayers were infected at a multiplicity of infection (MOI) of approximately 0.005 PFU/cell with virus strains including AdV5. […] Cytopathology was determined by the addition of CellTiter-Glo® reagent (Promega, Madison, Wis.).

ocular AdV infections = conditions: topical, literature; cited from earlier work
[2] = Cytotoxicity, CellTiter-Glo cell viability in HFF cells; conditions: human, human foreskin fibroblast (HFF) cells
Protocol: as §1, §2, §3, §4

[3] = HFF cells, 384-well, average and SD from five independent experiments

| Structure (SMILES) | EC50 (Adenovirus 5 (AdV5)) [µM] | CC50 [1, 3] [µM] | further results |
| --- | --- | --- | --- |
| OC[C@H]1O[C@@H](n2c(Br)nc3cc(Cl)c(Cl)cc32)[C@H](O)[C@@H]1O [BDCRB, bromodichlororibobenzimidazole] | 70 ± 39 | 91 ± 13 |  |
| Cc1cn([C@H]2C[C@H](O)[C@]3(CO)C[C@H]23)c(=O)[nH]c1=O [N-MCT, N-methanocarbathymidine] | 57 ± 47 | 72 ± 33 |  |
| Nc1nc(O)c2ncn(COC(CO)CO)c2n1 [GCV, ganciclovir] |  |  | efficacy in the treatment of AdV conjunctivitis in clinical trials (ocular AdV infections): lacks efficacy; selectivity ratio (Adenovirus 5 (AdV5); human, adenovirus 5, HFF cells, read-out: SI (selective index, CC50/EC50)): ≥ 1.5; CC50 [2]: > 100 µM |
| Nc1nc2c(ncn2COCCO)c(=O)[nH]1 [ACV, acyclovir] |  |  | CC50 [2]: > 100 µM |
| Nc1ncnc2c1ncn2CCOCP(=O)(O)O [PMEA, adefovir] |  | > 100 |  |
| O=c1[nH]c(=O)n([C@@H]2CO[C@H](CO)O2)cc1/C=C/Br [L-BHDU, L-Bromovinyl-Hydroxymethyl-Dioxolan Uracil] | > 100 |  | CC50 [1]: > 100 µM |
| O=c1[nH]c(=O)n([C@@H]2O[C@H](CO)[C@@H](O)[C@@H]2F)cc1I [FIAU] | > 100 |  | CC50 [1]: > 100 µM |
| O=c1[nH]c(=S)c(I)cn1[C@H]1C[C@H](O)[C@@H](CO)O1 [4-thio-IDU, 4-thioidoxuridine] |  | 26 ± 24 | EC50 (Adenovirus 5 (AdV5); Human mastadenovirus C): 11 ± 9.4 µM |
